Our source for the IC50 values is publication PMC9321339, “Characterization in Inhibitory Effectiveness of Carbamazepine in Voltage-Gated Na^+ and Erg-Mediated K^+ Currents in a Mouse Neural Crest-Derived (Neuro-2a) Cell Line” (International Journal of Molecular Sciences, 2022).

This assay concerns T1, voltage-gated Na+ (NaV) channels / INa in Neuro-2a cells (mainly NaV1.2, 1.3, 1.4 and 1.7).
T1 construct: gene Scn2a
It counts as cell-based. The following applies: step -100 to -10 mV, 30 ms, Ca2+-free Tyrode with 10 mM TEA, 0.5 mM CdCl2, 20-25 °C.

Like-named read-outs stand apart in the source and are kept apart here.

One may read the IC50 as the concentration needed to halve the response being measured. A higher IC50 goes with a need for much substance. With `NC(=O)N1c2ccccc2C=Cc2ccccc21` [Carbamazepine, 5H-dibenzo[b,f]azepine-5-carboxamide], the IC50 worked out at 18 µM (late (sustained) INa(L)) and 56 µM (peak (transient) INa(T)).
